From US7589186B2, “Isolated hOAT polynucleotide” (priority 1998, dated 2009)

Experiments:
[1] = target: hOAT (Homo sapiens, UniProt Q4U2R8); assay: Uptake of antiviral nucleotides (ADV, CDV, cCDV) in CHO-hOAT versus CHO cells; settings: for Vmax of uptake by CHO-hOAT / accumulation in CHO-hOAT (in words): CHO-hOAT cells
Experimental: pIRES-hOAT plasmid was transfected into CHO-K1 cells (ATCC CCL61) growing in F-12 nutrient mixture supplemented with 10% fetal bovine serum, 100 U/ml penicillin, and 100 μg/ml streptomycin. 24 hours before transfection, approximately 6×10^6 CHO-K1 cells were seeded into 100-mm Petri dish. At the time of transfection, media was aspirated and 6 ml of fresh media containing 12 μg of pIRES-hOAT and 60 μg of Cytofectin GSV cationic lipid (Glen Research, Sterling, Va.) was added to the cells. Following overnight incubation, selection of stable transformants started in phenol red-free F-12 nutrient mixture containing fetal bovine serum, penicillin and streptomycin as above, plus 1 mg/ml G418 (CLONTECH). […] For the PAH uptake assay, the cells were seeded into 12-well plates at the density of 2×10^5 cell/well. After 48 hours, growth media was aspirated and the cells were washed twice with phosphate buffered saline (PBS). […] After 90 min incubation at 37° C. in the transport buffer, the cells were washed 3-times with ice-cold PBS (2 ml/well) and lysed directly on the plate in the presence of 0.3% Triton X-100 (0.5 ml/well) for 20 min at room temperature. Plates were washed with additional 0.5 ml/well of Triton X-100, the lysate and wash were combined, scintillation fluid was added, and the radioactivity counted.
(§1) Uptake and cytotoxicity of ADV in the two cell lines was compared.

[2] = test system: CHO-hOAT cells; assay: Cytotoxicity in CHO-hOAT compared to CHO cells; type: cell-based, Chinese hamster; settings: for fold more cytotoxic in CHO-hOAT compared to CHO cells: without probenecid
Excerpt: as §1

[3] = substrate: Nc1ncnc2c1ncn2CCOCP(=O)(O)O; assay: cells, lysate or membranes; settings: other: CHO-hOAT cells; pH 7.2; 37.0 °C
Experimental: (§2) pIRES-hOAT plasmid was transfected into CHO-K1 cells (ATCC CCL61) growing in F-12 nutrient mixture supplemented with 10% fetal bovine serum, 100 U/ml penicillin, and 100 μg/ml streptomycin. 24 hours before transfection, approximately 6×10^6 CHO-K1 cells were seeded into 100-mm Petri dish. At the time of transfection, media was aspirated and 6 ml of fresh media containing 12 μg of pIRES-hOAT and 60 μg of Cytofectin GSV cationic lipid (Glen Research, Sterling, Va.) was added to the cells. Following overnight incubation, selection of stable transformants started in phenol red-free F-12 nutrient mixture containing fetal bovine serum, penicillin and streptomycin as above, plus 1 mg/ml G418 (CLONTECH). […] For the PAH uptake assay, the cells were seeded into 12-well plates at the density of 2×10^5 cell/well. After 48 hours, growth media was aspirated and the cells were washed twice with phosphate buffered saline (PBS). […] Plates were washed with additional 0.5 ml/well of Triton X-100, the lysate and wash were combined, scintillation fluid was added, and the radioactivity counted.

[4] = substrate: Nc1ccn(C[C@@H](CO)OCP(=O)(O)O)c(=O)n1; assay: cells, lysate or membranes; settings: other: CHO-hOAT cells; pH 7.2; 37.0 °C
Experimental: as §2

| Molecule | Vmax of uptake by CHO-hOAT [1] | fold more cytotoxic in CHO-hOAT compared to CHO cells [2] [fold] | accumulation in CHO-hOAT (in words) [1] | further results |
| --- | --- | --- | --- | --- |
| Nc1ncnc2c1ncn2CCOCP(=O)(O)O [ADV, Adefovir] | 390 pmol/10^6 cells | ~500 | – | accumulation in CHO-hOAT compared to CHO ([1]; CHO-hOAT vs CHO cells): > 300 fold; fold more susceptible CHO-hOAT than CHO in the presence of PBC ([2]; in the presence of 1 mM PBC): 3 fold |
| Nc1ccn(C[C@@H](CO)OCP(=O)(O)O)c(=O)n1 [CDV, cidofovir] | 1,110 pmol/10^6 cells | > 400 | efficiently accumulated | effect of PBC on cytotoxicity (in words) ([2]; CHO-hOAT cells, with PBC): significantly reduced by PBC |
| Nc1ccn(C[C@H]2COP(=O)(O)CO2)c(=O)n1 [cCDV] | – | – | not | increase of cytotoxicity in CHO-hOAT cells (in words) [2]: increased to much lesser extent |
| hOAT (Homo sapiens) (protein) MAFNDLLQQVGGVGRFQQIQVTLVVLPLLLMASHNTLQNFTAAIPTHHCRPPADANLSKNGGLEVWLPRDRQGQPESCLRFTSPQWGLPFLNGTEANGTGATEPCTDGWIYDNSTFPSTIVTEWDLVCSHRALRQLAQSLYMVGVLLGAMVFGYLADRLGRRKVLILNYLQTAVSGTCAAFAPNFPIYCAFRLLSGMALAGISLNCMTLNVEWMPIHTRACVGTLIGYVYSLGQFLLAGVAYAVPHWRHLQLLVSAPFFAFFIYSWFFIESARWHSSSGRLDLTLRALQRVARINGKREEGAKLSMEVLRASLQKELTMGKGQASAMELLRCPTLRHLFLCLSMLWFATSFAYYGLVMDLQGFGVSIYLIQVIFGAVDLPAKLVGFLVINSLGRRPAQMAALLLAGICILLNGVIPQDQSIVRTSLAVLGKGCLAASFNCIFLYTGELYPTMIRQTGMGMGSTMARVGSIVSPLVSMTAELYPSMPLFIYGAVPVAASAVTVLLPETLGQPLPDTVQDLESRKGKQTRQQQEHQKYMVPLQASAQEKNGL | – | – | – | Km [3]: 23 µM; Km [4]: 70 µM |
